Measurements: ChEMBL document CHEMBL2062405, “Alkaloids from the root of Isatis indigotica” (J Nat Prod, 2012)
Active and inactive are the calls of the source. The rule behind the calls is not given here.

Key:
[1] = system: MCF7; experiment: Cytotoxicity against human MCF7 cells at 10 uM after 96 hrs by MTT assay; format: functional, cell-based
[2] = system: Coxsackievirus B3; experiment: Antiviral activity against Coxsackievirus B3 assessed as inhibition of viral replication; format: functional, organism-based; details: Enterovirus B
[3] = system: Bel-7402; experiment: Cytotoxicity against human Bel7402 cells at 10 uM after 96 hrs by MTT assay; format: functional, cell-based
[4] = system: HCT-8; experiment: Cytotoxicity against human HCT8 cells at 10 uM after 96 hrs by MTT assay; format: functional, cell-based
[5] = system: Human alphaherpesvirus 1; experiment: Antiviral activity against Herpes simplex virus 1 at 10 uM; format: functional, organism-based
[6] = system: Human immunodeficiency virus 1; experiment: Antiviral activity against HIV1 infected in 293T cells cotransfected with VSV-G at 10 uM after 48 hrs by ELISA; format: functional, organism-based
[7] = system: BGC-823; experiment: Cytotoxicity against human BGC823 cells at 10 uM after 96 hrs by MTT assay; format: functional, cell-based
[8] = system: A549; experiment: Cytotoxicity against human A549 cells at 10 uM after 96 hrs by MTT assay; format: functional, cell-based
[9] = system: KETR3; experiment: Cytotoxicity against human Ketr3 cells at 10 uM after 96 hrs by MTT assay; format: functional, cell-based
[10] = system: Influenza A virus; experiment: Antiviral activity against influenza A virus A/Hanfang/359/95 (H3N2) assessed as inhibition of virus-induced cytopathic effect in cell-based assay; format: functional, organism-based

SMILES	Activity [1]	IC50 [2] [µM]	Activity [3]	Activity [4]	Activity [5]	Activity [6]	Activity [7]	Activity [8]	Activity [9]	IC50 [10] [µM]
NC(=O)CC1C(=O)Nc2ccccc21 (racemic)	inactive	6.87	inactive	inactive	inactive	inactive	inactive	inactive	inactive	
COc1cccc2[nH]cc(CC#N)c12 [ARVELEXIN]	inactive		inactive	inactive	inactive	inactive	inactive	inactive	inactive	3.7
COc1ccc(C(C#N)c2c[nH]c3ccccc23)c2[nH]cc(CC#N)c12 (single isomer, unassigned)	inactive		inactive	inactive	inactive	inactive	inactive	inactive	inactive	3.7
Cc1cc(CCCOc2c(C)cc(-c3noc(C(F)(F)F)n3)cc2C)on1 [PLECONARIL]		0.41								
